# Source: PubChem BioAssay (NCI)
#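 48-hour exposure; five concentrations; linearly interpolated endpoints. GI50: concentration for 50% inhibition of growth. TGI denotes the concentration required for complete inhibition of growth.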
# Tests used:
# Experiment in all cases: NCI anticancer screen, dose series, 48 h
# [1] = test system: NCI/ADR-RES ovarian
# [2] = test system: MDA-MB-231 breast
# [3] = test system: SF-268 CNS
# [4] = test system: SR leukemia
# [5] = test system: IGROV1 ovarian
# [6] = test system: HCT-15 colon
# [7] = test system: K-562 leukemia
# [8] = test system: CAKI-1 renal
SMILES,TGI [1] [µM],TGI [2] [µM],TGI [3] [µM],TGI [4] [µM],TGI [5] [µM],TGI [6] [µM],TGI [7] [µM],TGI [8] [µM],GI50 [1] [µM],GI50 [4] [µM],GI50 [5] [µM],GI50 [6] [µM],GI50 [7] [µM],GI50 [8] [µM]
C[n+]1cc2cc(O)c(O)cc2c2ccc3cc(O)c(O)cc3c21,6.67,> 100,13.5,9.53,4.75,> 34.2,> 37.4,> 37.3,,,,,,
CC(=O)O[C@@H](c1nccn1Cc1ccccc1)[C@H]1OC(C)(C)O[C@@H]1[C@H]1COC(C)(C)O1,> 100,> 100,> 100,,> 100,> 100,> 100,> 100,,,,,,
CCOC1C=CC(=O)C(CO)O1 (stereo not given),33.2,32.1,32.5,6.63,27.6,25.3,26,27.3,,,,,,
CC(C)Oc1cccc(N2C(n3ccnc3)=Nc3ccncc3S2(=O)=O)c1,62,,30.2,14.9,29.1,32.7,36.6,28.3,,,,,,
c1ccc(-c2c(-c3ccccc3)[n+](Cc3ccc4ccccc4c3)c(-c3ccc(-c4nc5ccccc5s4)cc3)n2Cc2ccc3ccccc3c2)cc1,2.61,,,0.756,0.408,1.13,3.79,0.451,1.07,0.14,0.121,0.335,0.0945,0.189
NS(=O)(=O)c1nnc(NC(=O)N(c2ccccc2)c2ccccc2)s1,44.4,> 100,> 100,,52.6,> 100,> 100,> 100,,,,,,
O=C1C=CC2(O[C@H](c3ccccc3)[C@@H](c3ccccc3)O2)[C@H](Sc2ccccc2O)C1,10,2.22,0.964,,0.593,0.507,78.2,0.886,,,,,,
CCOC(=O)c1csc(NC(=O)C(C)N2CCCC2)n1 (stereo not given),,> 100,,,> 100,> 100,> 100,> 100,,,,,,
Cc1nnc2n(c1=O)CCCN2C,,> 100,> 100,> 100,> 100,> 100,> 100,,,,,,,
CC1CC(N2CCOCC2)=Nc2ccccc2N1C (stereo not given),> 100,> 100,> 100,,> 100,> 100,> 100,> 100,,,,,,
COc1ccc2ccc3oc(=O)c(C)cc3c2c1,> 100,> 100,> 100,> 100,> 100,,> 100,> 100,,,,,,
NC1=CC(=O)c2c(O)ccc(O)c2C1=O,68.2,38.5,> 70.1,,29.5,> 56.1,> 50.5,66.8,,,,,,
COc1cccc(C2c3cc4c(cc3OC(O)C2C)OCO4)c1OC (stereo not given),,42.4,41.7,11.3,36.4,> 100,15.5,13.9,,,,,,
